Tested on: MIA PaCa-2 cells
Assay: Bru-seq analysis for nascent RNA synthesis (log2FC of genes, GSEA gene sets)
Format: cell-based, human
Settings: 4 h
[1] = GO_NUCLEAR_NUCLEOSOME, upregulated
[2] = GO_ORGANIC_HYDROXY_COMPOUND_BIOSYNTHETIC_PROCESS, upregulated
[3] = GO_PROTEIN_DNA_COMPLEX, upregulated
[4] = GO_REGULATION_OF_ENDOPLASMIC_RETICULUM_STRESS_INDUCED_INTRINSIC_APOPTOTIC_SIGNALING_PATHWAY, upregulated
[5] = GO_REGULATION_OF_STEROID_BIOSYNTHETIC_PROCESS, upregulated
[6] = GO_REGULATION_OF_STEROID_METABOLIC_PROCESS, upregulated
[7] = GO_RIBOSOMAL_SUBUNIT, upregulated
[8] = GO_STEROID_BIOSYNTHETIC_PROCESS, upregulated
[9] = GO_STEROID_METABOLIC_PROCESS, upregulated
[10] = GO_STEROL_BIOSYNTHETIC_PROCESS, upregulated
[11] = GO_STEROL_METABOLIC_PROCESS, upregulated
[12] = GO_STRUCTURAL_CONSTITUENT_OF_RIBOSOME, upregulated
[13] = HAMAI_APOPTOSIS_VIA_TRAIL_UP, C2, downregulated
[14] = HUTTMANN_B_CLL_POOR_SURVIVAL_DN, C2, downregulated
[15] = KEGG_ACUTE_MYELOID_LEUKEMIA, upregulated
[16] = KEGG_ADIPOCYTOKINE_SIGNALING_PATHWAY, upregulated
[17] = KEGG_BIOSYNTHESIS_OF_UNSATURATED_FATTY_ACIDS, upregulated
[18] = KEGG_CARDIAC_MUSCLE_CONTRACTION, upregulated
[19] = KEGG_ENDOMETRIAL_CANCER, upregulated
[20] = KEGG_FC_EPSILON_RI_SIGNALING_PATHWAY, upregulated
[21] = KEGG_GLYCOLYSIS_GLUCONEOGENESIS, upregulated
[22] = KEGG_INSULIN_SIGNALING_PATHWAY, upregulated
[23] = KEGG_LONG_TERM_DEPRESSION, upregulated
[24] = KEGG_MTOR_SIGNALING_PATHWAY, upregulated
[25] = KEGG_NON_SMALL_CELL_LUNG_CANCER, upregulated
[26] = KEGG_OXIDATIVE_PHOSPHORYLATION, upregulated
[27] = KEGG_PARKINSONS_DISEASE, upregulated
[28] = KEGG_PORPHYRIN_AND_CHLOROPHYLL_METABOLISM, upregulated
[29] = KEGG_PPAR_SIGNALING_PATHWAY, upregulated
[30] = KEGG_PROGESTERONE_MEDIATED_OOCYTE_MATURATION, upregulated
[31] = KEGG_PROSTATE_CANCER, upregulated
[32] = KEGG_RENAL_CELL_CARCINOMA, upregulated
[33] = KEGG_SNARE_INTERACTIONS_IN_VESICULAR_TRANSPORT, upregulated
[34] = KEGG_SYSTEMIC_LUPUS_ERYTHEMATOSUS, upregulated
[35] = KEGG_VEGF_SIGNALING_PATHWAY, upregulated
[36] = KRCTCNNNNMANAGC_UNKNOWN, TFBT, upregulated
[37] = MILI_PSEUDOPODIA_HAPTOTAXIS_UP, C2, downregulated
[38] = NIKOLSKY_BREAST_CANCER_8Q12_Q22_AMPLICON, C2, downregulated

Work on `Cc1cc(NC(=O)c2cnc(N3CCNCC3)cn2)c2ncccc2c1` [J28, N-(6-methylquinolin-8-yl)-5-(piperazin-1-yl)pyrazine-2-carboxamide] yielded an ES [1] of 0.745, an NES [1] of 2.088 and an ES [2] of 0.503. The NES [2] was 1.959, the ES [3] was 0.554 and the NES [3] was 2.251. The ES [4] was 0.678, the NES [4] was 2.024 and the ES [5] was 0.710. For the same compound, the NES [5] was 2.097, the ES [6] was 0.615 and the NES [6] was 2.031. The ES [7] was 0.469, the NES [7] was 1.976 and the ES [8] was 0.605. The NES [8] was 2.176, the ES [9] was 0.523 and the NES [9] was 2.100. For the same compound, the ES [10] was 0.757, the NES [10] was 2.428 and the ES [11] was 0.651. The NES [11] was 2.434, the ES [12] was 0.452 and the NES [12] was 1.990. For the same compound, the log2FC (GPR135, downregulated protein-coding gene) was −1.08, the log2FC (GRIN2C, downregulated protein-coding gene) was −0.95 and the ES [13] was −0.508. The NES [13] was −2.848, the ES (HEB_Q6, TFBT, upregulated) was 0.415 and the NES (HEB_Q6, TFBT, upregulated) was 1.688. It also gave a log2FC (HRH4, downregulated protein-coding gene) of −0.86, an ES [14] of −0.605 and an NES [14] of −2.158. The log2FC (IFT80, downregulated protein-coding gene) was −1.12, the ES [15] was 0.524 and the NES [15] was 1.872. It also gave an ES [16] of 0.429, an NES [16] of 1.493 and an ES [17] of 0.555. The NES [17] was 1.531, the ES [18] was 0.424 and the NES [18] was 1.386. The ES [19] was 0.437, the NES [19] was 1.492 and the ES [20] was 0.442. The NES [20] was 1.464, the ES [21] was 0.478 and the NES [21] was 1.563. It also gave an ES [22] of 0.349, an NES [22] of 1.403 and an ES [23] of 0.461. For the same compound, the NES [23] was 1.491, the ES (KEGG_LYSOSOME, upregulated) was 0.494 and the NES (KEGG_LYSOSOME, upregulated) was 1.958. It also gave an ES [24] of 0.447, an NES [24] of 1.469 and an ES [25] of 0.477. The NES [25] was 1.610, the ES [26] was 0.387 and the NES [26] was 1.544. It also gave an ES [27] of 0.358, an NES [27] of 1.404 and an ES (KEGG_PEROXISOME, upregulated) of 0.443. It also gave an NES (KEGG_PEROXISOME, upregulated) of 1.643, an ES [28] of 0.496 and an NES [28] of 1.448. The ES [29] was 0.485, the NES [29] was 1.573 and the ES [30] was 0.434. It also gave an NES [30] of 1.602, an ES [31] of 0.402 and an NES [31] of 1.527. It also gave an ES [32] of 0.393, an NES [32] of 1.392 and an ES (KEGG_RIBOSOME, upregulated) of 0.534. It also gave an NES (KEGG_RIBOSOME, upregulated) of 2.148, an ES [33] of 0.503 and an NES [33] of 1.647. For the same compound, the ES [34] was 0.661, the NES [34] was 2.271 and the ES [35] was 0.501. For the same compound, the NES [35] was 1.705, the log2FC (KLF10, downregulated protein-coding gene) was −0.88 and the ES [36] was 0.784. The NES [36] was 2.441, the log2FC (LINC01337, downregulated noncoding gene) was −1.06 and the log2FC (LINC01764, downregulated noncoding gene) was −1.03. The log2FC (LINC01930, downregulated noncoding gene) was −1.08, the log2FC (MALAT1, downregulated noncoding gene) was −1.19 and the ES (MAZR_01, TFBT, upregulated) was 0.380. The NES (MAZR_01, TFBT, upregulated) was 1.598, the ES [37] was −0.420 and the NES [37] was −2.372. The log2FC (MTND2P28, downregulated noncoding gene) was −0.97, the ES (NFE2_01, TFBT, upregulated) was 0.387 and the NES (NFE2_01, TFBT, upregulated) was 1.630. For the same compound, the ES (NFY_Q6_01, TFBT, upregulated) was 0.370, the NES (NFY_Q6_01, TFBT, upregulated) was 1.617 and the ES [38] was −0.499. It also gave an NES [38] of −2.099, an ES (NRF2_01, TFBT, upregulated) of 0.356 and an NES (NRF2_01, TFBT, upregulated) of 1.597.

— patent publication US20220081412A1, “QUINOLINYL-PYRAZINE-CARBOXAMIDE COMPOUNDS AND USES THEREOF” (The Regents of the University of Michigan, priority 2018, published 2022)
